In one series the target is wild EGFR (Homo sapiens, UniProt P00533). Conditions: J. Med. Chem. 2014; cited from earlier work.
Series [1] can be described thus: Pharmacokinetics of Dositinib and AZD9291 in rats. As to conditions: for T1/2: parent drug; for AUC0-last / Cmax: parent drug in plasma; for Cmax: intragastric 12 mg/kg per FIGS. 2-5.
Description: Preparation of Test Solution
2) Preparation of Orally Administered Preparations • a) Weigh an appropriate amount of compound powders into a container; • b) Add an appropriate volume of 0.5% HPMC (hydroxypropyl methylcellulose, 4000 CP) aqueous solution to the container, and continuously stir or whirl until a uniform solution was obtained; • c) Add the remaining volume of 0.5% HPMC (hydroxypropyl methylcellulose, 4000 CP) aqueous solution to the container to a final volume, and continuously stir or whirl until the solution was uniform.
The preparation for intragastric administration was prepared the day before administration and analyzed. When the preparation was not in use, it was stored in a refrigerator at 2° C. to 8° C. and used within 8 days.
Animal: Rats (SD) from Beijing Vital River Laboratory Animal Technology Co., Ltd. 36 rats (18 males and 18 females), 6-10 weeks old, 200-300 g (males); 170-280 g (female). […] The animals in the sixth group were administered with AZD9291 (mesylate) solution by gavage, with a dose volume of 10 mL/kg. The blood samples were taken at the following time points after administration to measure the blood drug concentrations: 0.083, 0.25, 0.5, 1, 2, 4, 6, 8, 12 and 24 hours.
Administration: Whole blood samples were collected through jugular vein puncture (or other appropriate blood collection sites) at the specified time (about 0.15 mL in the fifth group and 0.23 mL in other groups), with wet ice operation throughout the whole process, and the actual blood collection time was recorded in the experimental records. The acceptable error of collection time point was ±1 minute within 1 hour of administration, and ±5% of theoretical time for other time points. The blood samples were immediately transferred to labeled commercial tubes containing K2-EDTA and then centrifuged (3,000 g, 4° C., 15 min) for plasma collection.
Retention time, chromatogram collection and chromatogram integration of compounds and internal standards were processed by Software Analyst (Applied Biosystems), and data statistics were processed by software Watson LIMS (Thermo Fisher Scientific) or Analyst (Applied Biosystems). The unit of the analyte concentration in the sample was nM, three significant figures were reserved, and all values expressed in percentage (such as % deviation and % coefficient of variation, etc.) were reserved to one decimal place.
Data analysis and reporting: WinNonlin™ Version 6.3 (Pharsight, Mountain View, CA) or above pharmacokinetic software for non-atrioventricular models was used to process the blood drug concentration, and the linear logarithm trapezoid method was used to calculate the pharmacokinetic parameters.
Series [2] has as its system Human non-small cell lung cancer HCC827 cell subcutaneous xenograft. Conditions: HCC-827 nude mouse model, PO QD.
Protocol: Example 5 In Vivo Pharmacodynamics of Crystalline Form B of Dositinib and AZD9291 on Human Non-Small Cell Lung Cancer HCC827 Cell Subcutaneous Xenograft BALB/C Nude Mouse Model
Human non-small cell lung cancer HCC827 (ATCC-CRL-2868) was monolayer cultured in vitro. The culture conditions were: RPMI-1640 medium with 10% fetal bovine serum, 100 U/mL penicillin and 100 g/mL streptomycin, in a 5% CO2 incubator at 37° C. Trypsin EDTA was used for routine digestion twice a week. When the cell saturation was 80%-90% and the number reached the requirements, the cells were collected, counted and transplanted.
Animals: BALB/c nude mouse, female, 6-8 weeks old, weight 18-22 g. […]
Experimental index: to investigate whether the tumor growth is inhibited, delayed or cured. The tumor diameter was measured with a vernier caliper twice a week. […]
The antitumor effect of the compound was evaluated by tumor growth inhibition value (TGI) (%) or relative tumor proliferation rate T/C (%). […]
Relative tumor proliferation rate T/C (%): the calculation is as follows: T/C %=TRTV/CRTV×100% (TRTV: treatment group RTV; CRTV: negative control group RTV). The relative tumor volume (RTV) is calculated according to the results of tumor measurement. […]
At the end of the experiment, the tumor weight is measured and the percentage of Tweight/Cweight is calculated. […]

Sequence of wild EGFR (P00533 25-1210): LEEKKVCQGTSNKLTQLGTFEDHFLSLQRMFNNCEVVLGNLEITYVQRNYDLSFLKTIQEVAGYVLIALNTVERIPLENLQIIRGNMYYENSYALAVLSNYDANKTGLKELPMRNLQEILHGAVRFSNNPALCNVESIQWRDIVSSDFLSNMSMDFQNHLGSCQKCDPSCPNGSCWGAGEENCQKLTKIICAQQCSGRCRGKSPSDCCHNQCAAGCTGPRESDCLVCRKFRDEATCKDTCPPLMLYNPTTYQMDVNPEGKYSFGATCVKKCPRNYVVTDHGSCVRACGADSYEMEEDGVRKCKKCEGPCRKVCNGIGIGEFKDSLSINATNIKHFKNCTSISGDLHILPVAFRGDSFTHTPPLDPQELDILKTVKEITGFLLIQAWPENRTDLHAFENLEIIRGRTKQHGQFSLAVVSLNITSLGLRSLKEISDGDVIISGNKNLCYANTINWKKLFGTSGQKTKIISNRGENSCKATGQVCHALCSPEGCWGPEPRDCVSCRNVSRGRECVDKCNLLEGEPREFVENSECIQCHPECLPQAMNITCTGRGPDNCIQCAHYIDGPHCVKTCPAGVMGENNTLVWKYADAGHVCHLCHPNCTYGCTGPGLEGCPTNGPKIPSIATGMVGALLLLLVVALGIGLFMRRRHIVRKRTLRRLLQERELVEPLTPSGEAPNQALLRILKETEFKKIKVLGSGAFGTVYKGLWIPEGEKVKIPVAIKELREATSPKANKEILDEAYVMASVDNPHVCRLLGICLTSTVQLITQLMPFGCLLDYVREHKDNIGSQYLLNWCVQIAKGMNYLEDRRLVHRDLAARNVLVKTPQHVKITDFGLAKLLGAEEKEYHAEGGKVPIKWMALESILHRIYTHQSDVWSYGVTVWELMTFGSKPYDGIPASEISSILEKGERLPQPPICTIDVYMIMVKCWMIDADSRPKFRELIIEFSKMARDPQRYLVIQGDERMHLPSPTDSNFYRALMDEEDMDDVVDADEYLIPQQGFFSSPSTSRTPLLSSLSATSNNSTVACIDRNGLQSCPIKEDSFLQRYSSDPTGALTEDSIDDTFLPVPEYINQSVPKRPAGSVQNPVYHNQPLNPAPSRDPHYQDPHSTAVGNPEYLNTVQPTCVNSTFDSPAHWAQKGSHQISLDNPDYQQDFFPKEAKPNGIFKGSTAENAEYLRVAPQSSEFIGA

As for `C=CC(=O)Nc1cc(Nc2nccc(-c3c[nH]c4ccccc34)n2)c(OC)cc1N(C)CCN(C)C` [AZ5104], the “inhibitory activity on wild EGFR, times stronger than that of Osimertinib” value on wild EGFR is listed as 14.5 times.

In the case of `C=CC(=O)Nc1cc(Nc2nccc(-c3cn(C)c4ccccc34)n2)c(OC)cc1N(C)CCN(C)C` [AZD9291 (crystalline form A + B), Osimertinib, reference compound], in series [1] (female rats), the T1/2 stood at 5.59 h; the AUC0-last was determined as 2592 ng·h/mL; the Cmax (in general, the highest concentration seen after dosing) is given as 207 ng/mL. Besides, in series [1] (male rats), the T1/2 is 3.40 h, the AUC0-last amounted to 907 ng·h/mL and the Cmax is on record as 106 ng/mL.

For the molecule `CS(=O)(=O)O.[2H]C([2H])=CC(=O)Nc1cc(Nc2nccc(-c3cn(C([2H])([2H])[2H])c4ccccc34)n2)c(OC)cc1N(C)CCN(C)C` [Dositinib (crystalline form A + B), N-(2-(((2-(Dimethylamino)ethyl)) (methyl)amino)-4-methoxy-5-((4-(d3-1-methyl-1H-indol-3-yl)pyrimidin-2-yl)amino)phenyl) d2-acrylamide-mesylate], in series [1] (female rats), the T1/2 stood at 6.77 h, the AUC0-last was found to be 2650 ng·h/mL and the Cmax is listed as 205 ng/mL. Besides, in series [1] (male rats), the T1/2 is on record as 3.70 h, the AUC0-last was 915 ng·h/mL and the highest concentration (Cmax) is 110 ng/mL.

Take `CS(=O)(=O)O.[2H]C([2H])=CC(=O)Nc1cc(Nc2nccc(-c3cn(C([2H])([2H])[2H])c4ccccc34)n2)c(OC)cc1N(C)CCN(C)C` [Dositinib (crystalline form B), N-(2-(((2-(Dimethylamino)ethyl)) (methyl)amino)-4-methoxy-5-((4-(d3-1-methyl-1H-indol-3-yl)pyrimidin-2-yl)amino)phenyl) d2-acrylamide-mesylate]: in series [1] (female rats), the T1/2 is on record as 6.85 h, the AUC0-last was 3105 ng·h/mL and the peak concentration (Cmax) was found to be 208 ng/mL. In series [1] (male rats), the T1/2 is reported as 3.87 h, the AUC0-last is 1100 ng·h/mL and the Cmax is on record as 115 ng/mL. Also, in series [2], the “anticancer activity relative to AZD9291 (Osimertinib, mixture of crystalline forms A and B)” value is reported as “twice”. Further, in series [2] (0.5 mg/kg), the “anticancer activity of 0.5 mg/kg compared with 1 mg/kg of AZD9291” value is given as “equivalent”.

Source of the values: patent US12428398B2, “2-(2,4,5-substituted phenylamino) pyrimidine derivative and crystalline form B thereof” (Henan Genuine Biotech Co., Ltd., priority 2019, dated 2025).
